Test system: immortalized keratinocyte cell line HaCaT
Assay: Resazurin assay, HaCaT cell viability / proliferation
Format: cell-based, human
Conditions: for suboptimal dose of reduced viability: single agent dose response, HaCaT, 24 hours (FIG. 1)
Procedure: The spontaneously immortalized, nontumorigenic skin keratinocyte cell line HaCaT was maintained in DMEM supplemented with 5% (v/v) FBS, 0.3 mg/ml glutamine and 0.1 mg/ml gentamicin at 37° C. with 5% CO2 in a humidified atmosphere. Subculture using trypsin-EDTA was performed every 3-4 days with split ratio of 1:3-1:4 to ensure actively proliferating cells.
Cells were seeded in 96 well plates in fully supplemented medium at a density of 3000 cells per well. […] Next day, the cells were treated with cPLA2α inhibitor Compound B, Compound A, vitamin D analogue Calcipotriol and corticosteroid hormone receptor agonist Betamethasone dipropionate for 24 hours. Resazurin was added next day according to the manufacturer's instruction (RnD Systems, UK) and left to incubate for […] in incubator at 37° C. with 5% CO2 in a humidified atmosphere before fluorescence was read at 544 nm excitation and 590 nm emission wavelength. The cells were observed under the microscope to evaluate possible morphology changes and signs of stress before addition of resazurin. The experiments were performed in series of 8 wells per treatment and repeated 3 times.

| Structure (SMILES) | concentration up to which Hacat keratinocytes show resistance (single agent dose response (FIG. 1c), little effect seen attributed to solvent DMSO) | suboptimal dose of reduced viability |
| --- | --- | --- |
| C[C@H]1C[C@H]2[C@@H]3CCC4=CC(=O)C=C[C@]4(C)[C@@]3(F)[C@@H](O)C[C@]2(C)[C@@]1(O)C(=O)CO [Betamethasone] | up to 200 μM | 50 µM |
| CCCCCCCOc1ccc(OCC(=O)c2nc(C(=O)OC)cs2)cc1 [Compound A1] | – | 10 µM |
